Assay [1] relates to A549 cells. Put plainly: ATP release into extracellular fluid or after lysis buffer, with or without Triton X, after PFA. It is filed as cell-based. The procedure: In a factorial design, the cells were a) treated with 0%, 0.2%, or 1% PFA, and b) treated with or without 0.5% Triton X. ATP was then measured either from the extracellular fluids or within the wells after the use of a cell lysis buffer.
One out of 3 wells were incubated with 0%, 0.2%, and 1% PFA for 15 minutes and PFA was washed out 3 times with PBS. Half of the wells were then treated with 0.5% Triton X for 10 minutes and the other half received no Triton. The extracellular fluid from half of the 0.5% Triton X treated wells was then transferred to another well-plate and ATP was measured using a luciferin/luciferase complex. The other half of the 0.5% Triton X treated wells were first treated with a lysis buffer and then ATP was measured using the same luciferin/luciferase complex.

For a further assay, the system named is luciferase. The procedure: We assessed four groups of A549 cells: with 0.0625% PFA, 0.25% PFA, 1% PFA, and 4% PFA, each of them at 0%, 1%, 5%, or 25% of human serum. For each group, A549 cells were plated in 96 well plates with 4 replicates of 1,000 cells at 100 μl per well. The cell culture medium was DMEM/F12 plus 10% human serum. Luciferase-catalyzed ATP luminescence was then measured using the CellTiter-Glo assay per manufacturer's instructions.
A combination of PFA and serum mixture was then created using a 4×4 factorial design of 0.0625%, 0.25%, 1%, or 4% of PFA, and 0%, 1%, 5%, or 25% of human serum, and incubated for 15 min at room temperature. The mixture was then added to the wells and a second round of RLU measurements were taken within 5 min.

For assay [2], the system named is A549 cells. The following applies: 2% or 4% PFA for 15 min, thoroughly washed out.
Method: An experiment was therefore conducted to see what if any effect PFA had on cellular ATP content and whether it would still be possible to detect ATP in fixed tissue/cells. Four groups of cells were tested: • Group 1 was not pretreated with PFA (control). • Group 2 was treated with 2% PFA. • Group 3 was pretreated with 2% PFA that was then washed out. • Group 4 was pretreated with 4% PFA that was then washed out.
The experiment was conducted as follows. For each group, A549 cells (Catalog No. CCL-185, ATCC, Manassas, VA, USA) were plated in 96-well plates (200 μl/well) with 8 replicates of 1,000 cells in 50 μl cell culture medium per well (DMEM/F12 plus 10% human serum). Cells in group 1, the control group, was not treated with PFA. Cells in groups 2, 3, and 4 were incubated for 15 min. with 2%, 2%, and 4% PFA, respectively. PFA remained in the wells of group 2 and PFA was removed from groups 3 and 4 by washing 3 times with 100 μl Cell culture medium. Luciferase catalyzed ATP luminescence was measured as per CellTiter-Glo 3D manufacturer's instructions.
Luminescence was measured with a BioTek Synergy LX plate reader (Agilent, Santa Clara, CA, U.S.A.) and calculations were performed to quantify, measure, and/or correlate ATP level with cell viability.
We also used relative luminescence unit (RLU) as arbitrary units to calculate ATP level to cell viability.
Assay [3] relates to A549 cells. On the procedure: Furthermore, since serum contains proteins, we wanted to know whether incubating and washing with serum could neutralize any potentially residual effect of PFA on ATP measurements. Thus, we created a 4×4 factorial design to expose the cells with 0.0625%, 0.25%, 1%, or 4% of PFA and 0%, 1%, 5%, or 25% of human serum.
For this experiment, A549 cells were plated in 96-well plates with 4 replicates of in 100 μl per well (cell culture medium was DMEM/F12 plus 10% human serum). Cells were fixed with the PFA concentrations for 5 min and washed 3× with phosphate-buffered saline (PBS).
The cells were then incubated at various serum concentrations for 10 min and then washed twice with PBS. Finally, luciferase catalyzed ATP luminescence was measured as per manufacturer's instructions.

For assay [4] the following is noted: 2% to 4% formalin.

The results in this text go back to patent US12312631B1, “High-throughput multiplexed sensitivity and resistance assay” (SAGEMEDIC CORPORATION, priority 2022, dated 2025).

Where two headings read alike, the source gives them in different places.

As to Triton X, in the assay on A549 cells [1] (0.5% Triton X alone for 10 minutes, no PFA, RLUs similar to lysis buffer), the ATP release entry is listed as “complete ATP release”.
On to paraformaldehyde [PFA], for which the luciferase activity blocked entry in the assay with luciferase (1% PFA) was “about 90%”; with luciferase (4% PFA), “almost completely blocked”. In addition, the “change of RLUs” value in the assay on luciferase (up to 0.25% PFA added to the CellTiter-Glo solution) is reported as “did not change the RLUs”. Also, the “ATP released into the extracellular fluid” value with A549 cells [1] (0.2% and 1% PFA, then 0.5% Triton X, same effect after cell lysis buffer) is reported as “inhibited in a dose-dependent manner”. For the same compound, the “ATP leakage into the extracellular fluid” value with A549 cells [1] (0.2% or 1% PFA, without Triton X) was “neither 0.2% nor 1% PFA lead to some ATP leakage”. Moreover, in the assay with A549 cells [2], the “ATP luminescence compared with the control group” value was “less than half of the control group”. The “RLU (ATP luminescence) Avg.” value is recorded as 47,729 RLU with A549 cells [3] (PFA 0.06%, average over serum levels); 58,470 RLU with A549 cells [3] (PFA 0.25%, average over serum levels); 40,598 RLU in the assay with A549 cells [3] (PFA 1%, average over serum levels); 26,464 RLU in the assay with A549 cells [3] (PFA 4%, average over serum levels); 36,263 RLU in the assay on A549 cells [3] (average over PFA concentrations, serum 0%); 47,089 RLU in the assay with A549 cells [3] (average over PFA concentrations, serum 1%). Besides, the “RLU (ATP luminescence) Avg.” value in the assay on A549 cells [3] (average over PFA concentrations, serum 5%) is recorded as 42,358 RLU; in the assay with A549 cells [3] (average over PFA concentrations, serum 25%), 47,551 RLU; in the assay with A549 cells [3] (average over all PFA concentrations and serum levels), 43,315 RLU. In addition, the “RLU (ATP luminescence)” value in the assay with A549 cells [3] (PFA 0.06%, serum 0%) is recorded as 39,815 RLU; in the assay with A549 cells [3] (PFA 0.06%, serum 1%), 46,022 RLU; in the assay on A549 cells [3] (PFA 0.06%, serum 5%), 51,674 RLU; with A549 cells [3] (PFA 0.06%, serum 25%), 53,405 RLU; in the assay with A549 cells [3] (PFA 0.25%, serum 0%), 44,249 RLU; with A549 cells [3] (PFA 0.25%, serum 1%), 61,899 RLU. Besides, the “RLU (ATP luminescence)” value is recorded as 59,651 RLU in the assay on A549 cells [3] (PFA 0.25%, serum 5%); 68,082 RLU with A549 cells [3] (PFA 0.25%, serum 25%); 38,892 RLU in the assay on A549 cells [3] (PFA 1%, serum 0%); 45,576 RLU in the assay with A549 cells [3] (PFA 1%, serum 1%); 34,194 RLU in the assay on A549 cells [3] (PFA 1%, serum 5%); 43,731 RLU in the assay on A549 cells [3] (PFA 1%, serum 25%). The “RLU (ATP luminescence)” value in the assay on A549 cells [3] (PFA 4%, serum 0%) is 22,097 RLU; in the assay on A549 cells [3] (PFA 4%, serum 1%) it was 34,860 RLU; in the assay with A549 cells [3] (PFA 4%, serum 5%) it was 23,912 RLU; with A549 cells [3] (PFA 4%, serum 25%), 24,987 RLU.
For `C=O` [formalin], in assay [4], the “ATP still detectable in lysed cells after fixation” value was “almost half”.
